A short description of data set [1]: Examination of gemcitabine hydrochloride, doxorubicin and taxol for synergistic effect (combined with E7070). The settings on record: used in the composition with E7070; no data given.
In data set [2] the test system is Human colon cancer strain HCT15 xenograft. The settings on record: E7070 30 mg/kg/day QDx5, CPT-11 75 mg/kg/day Q4Dx3; for Toxicity mRBW mean (minimum relative body weight): day of minimum in parentheses.
Protocol: Human colon cancer strain HCT15 (purchased from ATCC) was cultured in RPMI1640 (containing 10%FBS) in a 5%CO2gas incubator until it attained about 80% confluence, and the cells were harvested with trypsin-EDTA and suspended in Hanks balanced solution to prepare a suspension of 5×10^7 cells/ml. 0.1 ml of the cell suspension was implanted subcutaneously in each nude mouse. When the average tumor volume reached 182 mm3 after the implantation, E7070 in a dose of 30 mg/kg/day and/or CPT-11 in a dose of 75 mg/kg/day were administered either alone or in combination. E7070was intravenously administered once per day for 5 days (first to fifth days), while CPT-11 was intravenously administered 3 times (once every 4 days, that is, on the first, fifth and ninth days). After the administration was initiated, the longer and shorter diameters of the tumor were measured at the frequency of 2 times/week with digital calipers (Mitsutoyo), and the tumor volume was calculated according to the following equation.
(§1) Tumor volume=longer diameter of tumor (mm)×shorter diameter of tumor (mm)^2/2
(§2) The items for determination of antitumor effect were the following 2 items:
Tx4: The time in days for tumor size to attain 4 folds of initial size.
(§3) Minimum relative tumor volume (mRTV): Minimum value of relative tumor volume (RTV*)
(§4) *: Tumor volume on n days after first treatment/tumor volume at the start of treatment.
Data set [3] deals with Human colon cancer strain SW620 xenograft. Kind of data set: Combined use of E7070 and CPT-11 in human colon cancer SW620 xenograft model. The settings on record: E7070 25 mg/kg/day QDx5, CPT-11 62.5 mg/kg/day Q4Dx3. In general terms: Xenograft models place foreign cells or tissue in a host animal.
Protocol: Human colon cancer strain SW620 (purchased from ATCC) was cultured in RPMI1640 (containing 10% FBS) in a 5% Co2gas incubator until it attained about 80% confluence, and the cells were harvested with trypsin-EDTA and suspended in Hanks balanced solution to prepare a suspension of 5×10^7 cells/ml. 0.1 ml of the cell suspension was implanted subcutaneously in each nude mouse. When the average tumor volume reached 226 mm^3 after the implantation, E7070 in a dose of 25 mg/kg/day and/or CPT-11 in a dose of 62.5 mg/kg/day were administered either alone or in combination. E7070 alone was intravenously administered once per day for 5 days (first to fifth days), while CPT-11 alone was intravenously administered 3 times (once every 4 days, that is, on the first, fifth and ninth days). Administration in combination was performed in 3 schedules, that is, simultaneous administration (E7070 on the first to fifth days; CPT-11 on the first, fifth and ninth days), previous administration of E7070 (E7070 on the first to fifth days; CPT-11 on the sixth, tenth and fourteenth days) and previous administration of CPT-11 (E7070 on the tenth to fourteenth days; CPT-11 on the first, fifth and ninth days). After the administration was initiated, the longer and shorter diameters of the tumor were measured at the frequency of 2 times/week with digital calipers (Mitsutoyo), and the tumor volume was calculated according to the following equation.
as §1, §2, §3, §4
Data set [4] concerns Human colon cancer strain HCT15 xenograft. In words: Combined use of E7070 and MMC in human colon cancer HCT15 xenograft model. The settings on record: E7070 QDx5, MMC 4.19 mg/kg/day QDx1; for Toxicity mRBW mean (minimum relative body weight): day of minimum in parentheses. Type of data set: in vivo.
Protocol: Human colon cancer strain HCT15 (purchased from ATCC) was cultured in RPMI1640 (containing 10% FBS) in a 5% CO2gas incubator until it attained about 80% confluence, and the cells were harvested with trypsin-EDTA and suspended in Hanks balanced solution to prepare a suspension of 5×10^7 cells/ml. 0.1 ml of the cell suspension was implanted subcutaneously in each nude mouse. When the average tumor volume reached 156 mm3 after the implantation, E7070 in a dose of 25 mg/kg/day and/or MMC in a dose of 4.19 mg/kg/day were administered either alone or in combination. E7070was intravenously administered once per day for 5 days (first to fifth days), while MMC was intravenously administered once (first day). After the administration was initiated, the longer and shorter diameters of the tumor were measured at the frequency of 2 times/week with digital calipers (Mitsutoyo), and the tumor volume was calculated according to the following equation.
as §1, §2
In data set [5] the test system is Human colon cancer strain Colo320D. M. xenograft. In words: Combined use of E7070 and 5-FU in human colon cancer Colo320D. M. xenograft model. Format: in vivo. The settings on record: for Toxicity Dead/Treated: E7070 30 mg/kg/day QDx5, 5-FU 60 mg/kg/day Q4Dx3. The source says: Human colon cancer strain Colo320D.
Data set [6] has as its system Human breast cancer HBC4 xenograft. Kind of data set: Combined use of E7070 and capecitabine in human breast cancer HBC4 xenograft model. Type of data set: in vivo, human cells in nude mouse. The settings on record: nude mice, s.c. HBC4; E7070 30.625 mg/kg/day (87.5% MTD) day 1-5; capecitabine 1.3125 mmol/kg/day (87.5% MTD) 14 days; combination: E7070 day 1-5, capecitabine day 6-19. The procedure: When the average tumor volume reached 114 mm3 after the implantation, E7070 in a dose of 30.625 mg/kg/day and/or capecitabine in a dose of 1.3125 mmol/kg/day were administered either alone or in combination.

Where a name gives a salt, the structure may show the parent alone. Read-outs that look alike come from different tables or passages of the source.

In the case of `Cl.Nc1ccn([C@@H]2O[C@H](CO)[C@@H](O)C2(F)F)c(=O)n1` [gemcitabine hydrochloride, 2′-deoxy-2′,2′-difluoro-cytidine hydrochloride], in data set [1], the “antitumor activity when examined for synergistic effect” value is listed as “excellent antitumor activity”.

In the case of `CCc1c2c(nc3ccc(OC(=O)N4CCC(N5CCCCC5)CC4)cc13)-c1cc3c(c(=O)n1C2)COC(=O)[C@]3(O)CC` [CPT-11, [1,4′-Bipiperidine]-1′-carboxylicacid (S)-4,11-diethyl-3,4,12,14-tetrahydro-4-hydroxy-3,14-dioxo-1H-pyrano-[3′,4′:6,7]-indolizino[1,2-b]quinolin-9-yl ester Hydrochloride trihydrate], the “Toxicity Dead/Treated” value in data set [2] and in data set [3] was 0/6 each time. For the same compound, the “Toxicity mRBW mean (minimum relative body weight)” value was 0.94 (7, 10) in data set [2] and 0.99 (8) in data set [3] (day of minimum in parentheses).

On to `CO[C@@]12[C@H](COC(N)=O)C3=C(C(=O)C(C)=C(N)C3=O)N1C[C@@H]1N[C@@H]12` [MMC, [1aS-(1aα,8β,8aα,8bα)]-6-amino-8-[[(aminocarbonyl)oxy]methyl]1,1a,2,8,8a,8b-hexahydro-8a-methoxy-5-methylazirino[2′,3′: 3,4]pyrrolo[1,2-a]indole-4,7-dione], for which, in data set [4], the “Toxicity Dead/Treated” value was 0/6 and the “Toxicity mRBW mean (minimum relative body weight)” value is recorded as 0.99 (11).

In the case of `NS(=O)(=O)c1ccc(S(=O)(=O)Nc2cccc3c(Cl)c[nH]c23)cc1` [E7070, N-(3-chloro-1H-indol-7-yl)-4-sulfamoylbenzenesulfonamide], the “Toxicity Dead/Treated” value in data set [4], in data set [5], in data set [2] and in data set [3] was 0/6 each time. For the same compound, the entries for the “Toxicity mRBW mean (minimum relative body weight)” value in data set [4], in data set [2] and in data set [3] (day of minimum in parentheses) were 0.93 (11), 0.92 (7) and 0.98 (8), respectively. Moreover, in data set [6], the “Tx4” value is 50.0 ± 8.1 days. The “mRTV mean ± S.D. (minimum relative tumor volume)” value in data set [3] (day of minimum in parentheses) is listed as 0.76 ± 0.42 (12).

As to `COc1cccc2c1C(=O)c1c(O)c3c(c(O)c1C2=O)C[C@@](O)(C(=O)CO)C[C@@H]3O[C@H]1C[C@H](N)[C@H](O)[C@H](C)O1` [doxorubicin, 10-[(3-amino-2,3,6-trideoxy-α-L-lyxo-hexopyranosyl)oxy]-7,8,9,10-tetrahydro-6,8,11-trihydroxy-8-(hydroxyacetyl)-1-methoxy-(8S-cis)-5,12-naphthacenedione], the “antitumor activity when examined for synergistic effect” value in data set [1] is given as “excellent antitumor activity”.

With `O=c1[nH]cc(F)c(=O)[nH]1` [5-FU, 5-fluoro-2,4-(1H,3H)-pyrimidinedione], the “Toxicity Dead/Treated” value in data set [5] was 0/6. Besides, the “Tx4 (days) mean ± S.D.: time in days for tumor size to attain 4 folds of initial tumor size” value in data set [5] (nude mice, s.c. Colo320D. M., E7070 30 mg/kg/day i.v. QDx5, 5-FU 60 mg/kg/day i.v. Q4Dx3, + simultaneous, → sequential) stood at 10.0 ± 0.7 days.

The values are drawn from patent US20040224972A1, “Medicinal compositions for concomitant use as anticancer agent” (priority 2000, published 2004).
